The assay has as its target T1, CmLOX10 (Cucumis melo, UniProt A0A125S6K7).
T1 construct: gene LOX10; full-length 902 residues incl. predicted 37-residue transit peptide; N-terminal His tag (pET-30a), E. coli BL21(DE3), Ni-NTA
T1 sequence (A0A125S6K7 1-902): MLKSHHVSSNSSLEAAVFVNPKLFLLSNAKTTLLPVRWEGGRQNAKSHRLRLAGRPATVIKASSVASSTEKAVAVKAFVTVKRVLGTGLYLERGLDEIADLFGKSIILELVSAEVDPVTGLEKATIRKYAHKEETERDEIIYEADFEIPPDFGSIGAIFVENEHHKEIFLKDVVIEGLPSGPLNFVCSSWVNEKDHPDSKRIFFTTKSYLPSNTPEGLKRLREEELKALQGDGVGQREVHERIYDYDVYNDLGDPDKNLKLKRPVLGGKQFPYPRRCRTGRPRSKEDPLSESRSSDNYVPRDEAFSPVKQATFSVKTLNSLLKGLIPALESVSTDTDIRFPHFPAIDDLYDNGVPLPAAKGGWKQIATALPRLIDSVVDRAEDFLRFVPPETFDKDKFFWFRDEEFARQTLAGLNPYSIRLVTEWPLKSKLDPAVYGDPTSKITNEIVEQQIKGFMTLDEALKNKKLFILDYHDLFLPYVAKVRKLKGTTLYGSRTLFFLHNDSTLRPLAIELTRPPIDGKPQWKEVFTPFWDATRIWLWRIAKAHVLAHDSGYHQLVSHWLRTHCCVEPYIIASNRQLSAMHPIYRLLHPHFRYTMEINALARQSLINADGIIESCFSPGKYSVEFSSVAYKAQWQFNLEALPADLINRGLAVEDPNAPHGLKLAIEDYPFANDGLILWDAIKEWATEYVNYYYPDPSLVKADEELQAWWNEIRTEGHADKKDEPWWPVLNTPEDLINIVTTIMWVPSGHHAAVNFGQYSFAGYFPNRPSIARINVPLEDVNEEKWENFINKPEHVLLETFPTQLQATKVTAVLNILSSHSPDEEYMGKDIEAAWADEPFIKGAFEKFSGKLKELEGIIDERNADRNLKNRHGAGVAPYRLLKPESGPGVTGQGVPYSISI
As to the kind of experiment: conjugated diene formation at […] nm, Michaelis-Menten. In kind it is biochemical. The settings on record: 25 °C, saturating oxygen, 16.5-330 μM substrate; pH of kinetics not stated explicitly (optimum pH 5.0).

The structures appear in SMILES notation.

Turning to `CCCCC/C=C\C/C=C\CCCCCCCC(=O)O` [linoleic acid], the Km was found to be 230 µM.

Regarding `CC/C=C\C/C=C\C/C=C\CCCCCCCC(=O)O` [linolenic acid], the Km was determined as 140 µM.

Source of the values: paper PMC4839669, “Heterologous Expression and Biochemical Characterization of Two Lipoxygenases in Oriental Melon, Cucumis melo var. makuwa Makino” (PLoS ONE, 2016).
